Assay results from patent US10689408B2, “Bisphosphonic acid compound” (FUJIYAKUHIN CO., LTD., priority 2016, dated 2020).

Test system: carotid artery intima-media thicknesses
Assay: not given
Settings: type 2 diabetic patients; cited from earlier work
For `CC(O)(P(=O)(O)O)P(=O)(O)O` [etidronate, Etidronate], the “carotid artery intima-media thickness” value is given as “significantly decrease the carotid artery intima-media thicknesses”.

Test system: calcification in the aorta
Assay: not given
Settings: dialysis patients; cited from earlier work
In the case of `CC(O)(P(=O)(O)O)P(=O)(O)O` [etidronate, Etidronate], the “inhibition of calcification in the aorta” value is listed as “significantly inhibit calcification in the aorta”.

Test system: Vitamin D3-Induced Vascular Calcification Rat Model
Assay: Ectopic calcification inhibitory effect in vitamin D3-induced vascular calcification rat model (amount of aortic phosphorus)
Type: in vivo, Male Wistar/ST rats
Settings: 336 h, dose 3 mg/kg, oral, once a day for 2 weeks, aortic phosphorus relative to control (vehicle), read-out: Rate of inhibition (%) of ectopic calcification
Description: Test Example: Ectopic Calcification Inhibitory Effect in Vitamin D3-Induced Vascular Calcification Rat Model
Male Wistar/ST rats were grouped according to their body weights as an index (6 individuals per group). Cholecalciferol (Wako Pure Chemical Industries, Ltd.) was subcutaneously administered at repeated doses of 125,000 IU/kg to each rat for 3 days to induce vascular calcification. Each test substance was orally administered at repeated doses once a day for 2 weeks from the day of administration of cholecalciferol. The rats were fasted from approximately 6 hours before the administration of the test substance to approximately 2 hours thereafter. On the day following the final administration, total blood was collected from the descending aorta of each rat under isoflurane anesthesia, and then, the aorta from the aortic root to the posterior limb bifurcation was excised. The aorta was chopped, then homogenized after adding 5 mL of 1 N hydrochloric acid and left at room temperature for 1 hour. After centrifugation at 15,000 rpm at 4° C. for 15 minutes, the obtained supernatant was used as a measurement sample. The amount of phosphorus in the measurement sample was measured using Phospha C-Test Wako (Wako Pure Chemical Industries, Ltd.) and used as an index for calcification. An average value of the amounts of aortic phosphorus in each group was determined to calculate the rate of inhibition of calcification by the administration of the test substance relative to a control (vehicle administration) (Table 7).
`O=P(O)(O)C(O)(CC1CC2CCC1C2)P(=O)(O)O` (stereo not drawn) [Example 31, Disodium [2-(bicyclo[2.2.1]heptan-2-yl)-1-hydroxyethane-1,1-diyl]bisphosphonate] gave an inhibition in vivo at 3 mg/kg of 29%.
In the case of `CC(C1CCCC1)C(O)(P(=O)(O)O)P(=O)(O)O` (stereo not drawn) [Example 8, Disodium (2-cyclopentyl-1-hydroxypropane-1,1-diyl)bisphosphonate], the inhibition in vivo at 3 mg/kg is reported as 22%.

Same assay, conditions: 336 h, dose 5 mg/kg, oral, once a day for 2 weeks, aortic phosphorus relative to control (vehicle), read-out: Rate of inhibition (%) of ectopic calcification
`O=P(O)(O)C(O)(CC1CCCCC1)P(=O)(O)O` [Example 27, Disodium (2-cyclohexyl-1-hydroxyethane-1,1-diyl)bisphosphonate] gave an inhibition in vivo at 5 mg/kg of 82%.
In the case of `C[C@@H]1C[C@@H](CC(O)(P(=O)(O)O)P(=O)(O)O)C[C@@H]1C` [Example 25, Disodium {2-[(1s,3R,4S)-3,4-dimethylcyclopentyl]-1-hydroxyethane-1,1-diyl}bisphosphonate], the inhibition in vivo at 5 mg/kg is reported as 64%.
In the case of `O=P(O)(O)C(O)(C=C1CCCC1)P(=O)(O)O` [Example 7, Disodium (2-cyclopentylidene-1-hydroxyethane-1,1-diyl)bisphosphonate], the inhibition in vivo at 5 mg/kg is reported as 51%.
In the case of `CCC1(CC(O)(P(=O)(O)O)P(=O)(O)O)CCCC1` [Example 12, Disodium [2-(1-ethylcyclopentyl)-1-hydroxyethane-1,1-diyl]bisphosphonate], the inhibition in vivo at 5 mg/kg is reported as 28%.
In the case of `CC1(CC(O)(P(=O)(O)O)P(=O)(O)O)CCCC1` [Example 11, Disodium [1-hydroxy-2-(1-methylcyclopentyl)ethane-1,1-diyl]bisphosphonate], the inhibition in vivo at 5 mg/kg is reported as 57%.
`C[C@H]1CC[C@H](CC(O)(P(=O)(O)O)P(=O)(O)O)C1` (relative stereo) [Example 17, Disodium {1-hydroxy-2-[(1R*,3R*)-3-methylcyclopentyl]ethane-1,1-diyl}bisphosphonate] gave an inhibition in vivo at 5 mg/kg of 80%.
`O=P(O)(O)C(O)(C[C@@H]1CC[C@@H](Oc2ccccc2)C1)P(=O)(O)O` (relative stereo) [Example 20, Disodium {1-hydroxy-2-[(1R*,3R*)-3-phenoxycyclopentyl]ethane-1,1-diyl}bisphosphonate] showed an inhibition in vivo at 5 mg/kg of 46%.
`CC1(C)CCC(CC(O)(P(=O)(O)O)P(=O)(O)O)C1` (stereo not drawn) [Example 21, Disodium [2-(3,3-dimethylcyclopentyl)-1-hydroxyethane-1,1-diyl]bisphosphonate] gave an inhibition in vivo at 5 mg/kg of 68%.
`CC1(C)CC(CC(O)(P(=O)(O)O)P(=O)(O)O)CC(C)(C)C1` [Example 35, Disodium [1-hydroxy-2-(3,3,5,5-tetramethylcyclohexyl)ethane-1,1-diyl]bisphosphonate] gave an inhibition in vivo at 5 mg/kg of 71%.
Work on `O=P(O)(O)C(O)(C[C@@H]1CC[C@@H](F)C1)P(=O)(O)O` (relative stereo) [Example 18, Disodium {2-[(1R*,3R*)-3-fluorocyclopentyl]-1-hydroxyethane-1,1-diyl}bisphosphonate] yielded an inhibition in vivo at 5 mg/kg of 53%.
Molecule `CCCC1(CC(O)(P(=O)(O)O)P(=O)(O)O)CCCC1` [Example 13, Disodium [1-hydroxy-2-(1-propylcyclopentyl)ethane-1,1-diyl]bisphosphonate] has an inhibition in vivo at 5 mg/kg of 53%.
For `C[C@H]1CC[C@@H](CC(O)(P(=O)(O)O)P(=O)(O)O)C1` (relative stereo) [Example 16, Disodium {1-hydroxy-2-[(1R*,3S*)-3-methylcyclopentyl]ethane-1,1-diyl}bisphosphonate], the inhibition in vivo at 5 mg/kg was 75%.
Work on `C[C@@H]1C[C@H](CC(O)(P(=O)(O)O)P(=O)(O)O)C[C@@H]1C` [Example 24, Disodium {2-[(1r,3R,4S)-3,4-dimethylcyclopentyl]-1-hydroxyethane-1,1-diyl}bisphosphonate] yielded an inhibition in vivo at 5 mg/kg of 93%.
With `CC1(CC(O)(P(=O)(O)O)P(=O)(O)O)CCC1` [Example 4, Disodium [1-hydroxy-2-(1-methylcyclobutyl)ethane-1,1-diyl]bisphosphonate] the inhibition in vivo at 5 mg/kg was 39%.
`CC1(CC(O)(P(=O)(O)O)P(=O)(O)O)CCCCC1` [Example 30, Disodium [1-hydroxy-2-(1-methylcyclohexyl)ethane-1,1-diyl]bisphosphonate] gave an inhibition in vivo at 5 mg/kg of 47%.
`CC1(C)CC(CC(O)(P(=O)(O)O)P(=O)(O)O)CC1(C)C` [Example 26, Disodium [1-hydroxy-2-(3,3,4,4-tetramethylcyclopentyl)ethane-1,1-diyl]bisphosphonate] gave an inhibition in vivo at 5 mg/kg of 66%.
`O=P(O)(O)C(O)(CC1CCC(F)(F)C1)P(=O)(O)O` (stereo not drawn) [Example 23, Disodium [2-(3,3-difluorocyclopentyl)-1-hydroxyethane-1,1-diyl]bisphosphonate] showed an inhibition in vivo at 5 mg/kg of 43%.
With `CC1CCC(CC(O)(P(=O)(O)O)P(=O)(O)O)C1` (stereo not drawn) [Example 15, Disodium [1-hydroxy-2-(3-methylcyclopentyl)ethane-1,1-diyl]bisphosphonate] the inhibition in vivo at 5 mg/kg was 87%.
`CC1CCCC1CC(O)(P(=O)(O)O)P(=O)(O)O` (stereo not drawn) [Example 14, Disodium [1-hydroxy-2-(2-methylcyclopentyl)ethane-1,1-diyl]bisphosphonate] showed an inhibition in vivo at 5 mg/kg of 29%.

Same assay, conditions: 336 h, dose 10 mg/kg, oral, once a day for 2 weeks, aortic phosphorus relative to control (vehicle), read-out: Rate of inhibition (%) of ectopic calcification
`O=P(O)(O)C(O)(CC1CCCCCC1)P(=O)(O)O` [Example 44, Disodium (2-cycloheptyl-1-hydroxyethane-1,1-diyl)bisphosphonate] showed an inhibition in vivo at 10 mg/kg of 95%.
Molecule `CC(C1CCC1)C(O)(P(=O)(O)O)P(=O)(O)O` (stereo not drawn) [Example 3, Disodium (2-cyclobutyl-1-hydroxypropane-1,1-diyl)bisphosphonate] has an inhibition in vivo at 10 mg/kg of 64%.

Same assay, conditions: 336 h, dose 30 mg/kg, oral, once a day for 2 weeks, aortic phosphorus relative to control (vehicle), read-out: Rate of inhibition (%) of ectopic calcification
Molecule `CC(C1CCCCC1)C(O)(P(=O)(O)O)P(=O)(O)O` (stereo not drawn) [Example 28, Disodium (2-cyclohexyl-1-hydroxypropane-1,1-diyl)bisphosphonate] has an inhibition in vivo at 30 mg/kg of 95%.
With `O=P(O)(O)C(O)(CC1CCCC1)P(=O)(O)O` [Example 6, Disodium (2-cyclopentyl-1-hydroxyethane-1,1-diyl)bisphosphonate] the inhibition in vivo at 30 mg/kg was 95%.
